pIC50: −log10 of the molar value. Counter-ions that a name gives are not always drawn.
What was measured:
[1] = tested on: Human platelet aggregation (platelet-rich plasma); test: Inhibition of Human Platelet Aggregation (PRP), collagen-induced; assay type: cell-based; conditions: collagen-induced aggregation (4 μg/ml final), 37° C.
Protocol: Inhibition of Human Platelet Aggregation (PRP)
Platelet rich plasma was prepared from citrated whole blood (3.8% Na citrate, 1:10 in 30 ml blood) withdrawn from the antecubital vein (n=1). PRP was prepared by centrifugation (Sorvall RC3C, DuPont, Wilmington, Del.) of the whole blood at 1000×g for 3 min, allowing the centrifuge to stop without braking. Platelet poor plasma (PPP) was prepared by centrifugation of PRP at 2000×g for 10 min. […] Aggregation was measured in a 4 channel aggregometer (model PAP-4C, Bio/Data Corp., Hatboro, Pa.). Aliquots of PPP were used to standardize the aggregometer for measurement of maximum light transmission. Platelet aggregation was measured as an increase in light transmission.
PRP (430 μl aliquot) was preincubated with 50 μl of various concentrations of compound (dissolved in 10% ETOH/water at a concentration of 10^-3 M. Compounds were diluted to desired concentration with 0.9% NaCl) for 2 min at 37° C., with stirring at 900 rpm, in the aggregometer. The stock collagen (Chronolog, Havertown, Pa., equine tendon) was diluted 1:10 with a 5% dextrose and water solution. The vehicle control response was obtained by adding 20 μl diluted collagen to the untreated aliquot of PRP+50 μl saline. Final collagen concentration was 4 μg/ml. Aggregation was recorded for 3 min following the addition of collagen. […] Percent inhibition was calculated by comparing treated and control samples. IC50 's were calculated graphically from dose-response curves. Average values and standard errors were calculated using the IC50 's of the individual experiments. Statistical analyses were done by an unequal variance, unpaired Student's t-test [Minitab Reference Manual, Minitab Inc., State College, Pa. (1988)]. Statistical significance was assumed when p<0.05 was found.
(§1) (NT in the following table indicates not tested.)

[2] = tested on: Dog platelet aggregation (platelet-rich plasma); test: In-Vitro Platelet Aggregation in PRP (Dog), collagen-induced; assay type: cell-based; conditions: for pIC50: collagen-induced aggregation (33 μg/ml final), 37° C.
Protocol: In-Vitro Platelet Aggregation in PRP--(Dog)
Healthy male or female dogs were fasted for 8 hours prior to drawing blood; then 60 ml whole blood was collected using a butterfly needle and 30 cc plastic syringe with 6 ml of 0.129M buffered sodium citrate (3.8%) (drawn from a minimum of 3 dogs and blood was pooled). The syringe was rotated carefully as blood was drawn to mix the citrate. Platelet-rich plasma (PRP) was prepared by centrifugation at 975×g for 3.17 minutes at room temperature, allowing the centrifuge to coast to a stop without braking. The PRP was removed from the blood with a plastic pipette and placed in a plastic capped 50 ml Corning conical sterile centrifuge tube which was held at room temperature. Platelet poor plasma (PPP) was prepared by centrifuging the remaining blood at 2000×g for 15 minutes at room temperature allowing the centrifuge to coast to a stop without braking. The platelet count in the PRP was routinely 2-4×10^8 platelets per ml. 400 μl of the PRP preparation and 50 μl of the compound to be tested or saline were preincubated for 2 minutes at 37° C. in a BioData aggregometer (BioData, Horsham, Pa.). 50 μl of collagen (diluted 1:3 with 5% dextrose and water solution, 33 μg/ml final concentration, equine tendon, Chronolog, Havertown, Pa.) was added to the cuvettes and the aggregation was monitored for 3 minutes. All compounds are tested in duplicate.
Results are calculated as follows:
Percent of control=[(maximal OD minus initial OD of compound) divided by (maximal OD minus initial OD of control saline)]×100. The % inhibition=100-(percent of control).
as §1

[3] = Canis lupus familiaris, Platelet

Row | SMILES | pIC50 [1] | pIC50 [2] | pIC50 ([1]; Homo sapiens, Platelet) | inhibition at 1 µM ([2]; Canis lupus familiaris, @ 1 μM, collagen-induced aggregation) | pIC50 [2, 3]
1 | C=C[C@H](CC(=O)O)NC(=O)CC1CCN(c2ccc(C(=N)N)cc2)C1=O (single isomer, unassigned; isomer a) [Example 4, 3S-[[[1-[4-(aminoiminomethyl)phenyl]-2-oxo-3-pyrrolidinyl]acetyl]amino]-4-pentenoic acid, monohydrochloride, enantiomerically enriched isomer A.] | 7.26 | 7.28 | – | – | –
2 | N=C(N)c1ccc(N2CCC(NC(=O)NCCC(=O)O)C2=O)cc1 (single isomer, unassigned; isomer a) [Example 41, 3-[[[[1-[4-(aminoiminomethyl)phenyl]-2-oxo-3-pyrrolidinyl]amino]carbonyl]amino]propanoic acid trifluoroacetate. Enantiomerically Enriched Isomer A.] | – | – | 6.82 | 30% | –
3 | C=C[C@H](CC(=O)O)NC(=O)CC1CCN(c2ccc(C(=N)N)cc2)C1=O (single isomer, unassigned; isomer b) [Example 6, 3S-[[[1-[4-(aminoiminomethyl)phenyl]-2-oxo-3-pyrrolidinyl]acetyl]amino]-4-pentenoic acid, enantiomerically enriched isomer B] | 6.07 | 5.80 | – | – | –
4 | N=C(N)c1ccc(N2CCC(CC(=O)NCCC(=O)O)C2=O)cc1 (single isomer, unassigned; isomer b) [Example 36, 3-[[[1-[4-(aminoiminomethyl)phenyl]-2-oxo-3-pyrrolidinyl]acetyl]amino]propionic acid, trifluoroacetate, enantiomerically enriched isomer B.] | – | – | 6.96 | – | 7.04
5 | N=C(N)c1ccc(N2CCC(CC(=O)NCCC(=O)O)C2=O)cc1 (stereo not drawn) [Example 8, 3-[[[1-[4-(aminoiminomethyl)phenyl]-2-oxo-3-pyrrolidinyl]acetyl]amino]propionic acid] | – | – | 6.74 | – | 6.74
6 | CC(CC(=O)O)NC(=O)CC1CCN(c2ccc(C(=N)N)cc2)C1=O (stereo not drawn) [Example 10, 3-[[[-[4-(aminoiminomethyl)phenyl]-2-oxo-3-pyrrolidinyl]acetyl]amino]butanoic acid] | – | – | 6.59 | – | 6.77
7 | N=C(N)c1ccc(N2CCC(CC(=O)NC(CC(=O)O)c3ccccc3)C2=O)cc1 (stereo not drawn) [Example 12, 3-[[[1-[4-(aminoiminomethyl)phenyl]-2-oxo-3-pyrrolidinyl]acetyl]amino]-3-phenylpropionic acid] | – | – | 6.54 | – | 6.41
8 | N=C(N)c1ccc(N2CCC(CC(=O)NC[C@H](NC(=O)OCc3ccccc3)C(=O)O)C2=O)cc1 (stereo partly drawn) [Example 16, 3-[[[1-[4-(aminoiminomethyl)phenyl]-2-oxo-3-pyrrolidinyl]acetyl]amino]-N-[(phenylmethoxy)carbonyl]-L-alanine] | – | – | 6.51 | – | 7.00
9 | C=C[C@H](CC(=O)O)NC(=O)NC1CCN(c2ccc(C(=N)N)cc2)C1=O (stereo partly drawn) [Example 18, 3(S)-[[[[1-[4-(aminoiminomethyl]phenyl]-2-oxo-3-pyrrolidinyl]amino]carbonyl]amino]-4-pentenoic acid] | – | – | 7.00 | – | 6.77
10 | C[C@@H](CCCC1CCN(c2ccc(C(=N)N)cc2)C1=O)CC(=O)O (stereo partly drawn) [Example 19, 1-[4-(aminoiminomethyl)phenyl]-βS-methyl-2-oxo-3-pyrrolidinehexanoic acid, monohydrochloride.] | – | – | 7.05 | – | 6.82
11 | CC(C)(C)C#CC(CC(=O)O)NC(=O)CC1CCCN(c2ccc(C(=N)N)cc2)C1=O (stereo not drawn) [Example 26, 3-[[[1-[4-(aminoiminomethyl)phenyl]-2-oxo-3-piperidinyl]acetyl]amino]-6,6-dimethyl-4-heptynoic acid] | – | – | – | – | 6.23
12 | N=C(N)c1ccc(N2CCCC(CC(=O)NC(C#Cc3ccccc3)CC(=O)O)C2=O)cc1 (stereo not drawn) [Example 28, 3-[[[1-[4-(aminoiminomethyl)phenyl]-2-oxo-3-piperidinyl]acetyl]amino]-5-phenyl-4-pentynoic acid.] | – | – | 6.72 | – | 6.77
13 | CC(CC(=O)O)NC(=O)CC1CCCN(c2ccc(C(=N)N)cc2)C1=O (stereo not drawn) [Example 30, 3-[[[1-[4-(aminoiminomethyl)phenyl]-2-oxo-3-piperidinyl]acetyl]amino]-butanoic acid] | – | – | 6.55 | – | 6.42
14 | N=C(N)c1ccc(N2CCCC(CC(=O)NC(CC(=O)O)c3ccccc3)C2=O)cc1 (stereo not drawn) [Example 32, 3-[[[1-[4-(aminoiminomethyl)phenyl]-2-oxo-3-piperidinyl]acetyl]amino]-3-phenylpropanoic acid] | – | – | 6.80 | – | 6.60
15 | C=C[C@H](CC(=O)O)NC(=O)CC1CCCN(c2ccc(C(=N)N)cc2)C1=O (stereo partly drawn) [Example 34, 3(S)-[[[1-[4-(aminoiminomethyl)phenyl]-2-oxo-3-piperidinyl]acetyl]amino]-4-pentenoic acid.] | – | – | – | – | 6.92
16 | COc1ccc(C(CC(=O)O)NC(=O)CC2CCCN(c3ccc(C(=N)N)cc3)C2=O)cc1 (stereo not drawn) [Example 34I, 3-[[[1-[4-(aminoiminomethyl)phenyl]-2-oxo-3-piperidinyl]acetyl]amino]-3-(4-methoxyphenyl)propanoic acid] | – | – | – | – | 6.74
17 | N=C(N)c1ccc(N2CCC(NC(=O)NCCC(=O)O)C2=O)cc1 (stereo not drawn) [Example 38, 3-[[[[1-[4-(aminoiminomethyl)phenyl]-2-oxo-3-pyrrolidinyl]amino]carbonyl]amino]propionic acid, trifluoroacetate.] | – | – | – | – | 6.90

— patent publication US5721366A, “Platelet aggregation inhibitors” (G. D. Searle & Co, priority 1995, dated 1998)
